Read-outs that look alike come from different tables or passages of the source.
Details: for time to therapeutic effect (time when dP/dt max leveled off): n=1
Experimental: Female Sprague Dawley rats (225-300 g) were anaesthetized using isoflurane (1-3% isoflurane in oxygen). Animals were treated with a single dose of sustained release buprenorphine (Bup-SR) at 1 mg/kg subcutaneously to control pain. 2 device of the invention reservoirs (porous or non-porous) were implanted subcutaneously in the rat, the device implantation procedure is shown in FIG. 3A. Briefly, the hair on the back of the rat was removed and surgical sites were prepared with 3 washes of Betadine and 70% ethanol. Devices were sterilized using ethylene oxide prior to implantation. An anterior incision was made at the base of the neck for the and 2 posterior incisions were made 9 cm from the original incision along the back of the rat, 1 cm lateral of the spine. A blunt dissection was made at all incisions and a forceps was used to tunnel subcutaneously from the anterior to the posterior sites. A vascular access button, or self-sealing subcutaneous port (VAB95BS-MRI, VABM2B/22R22, VABR4B/22 Instech Laboratories), was connected to the dorsal end of the catheter of each device of the invention reservoir. The port was placed in position at the base of the neck and the devices tunneled posteriorly into position. The port was secured to the underlying fascia using at least one interrupted suture (5-0 monofilament). Each device of the invention reservoir was secured to the underlying fascia with one suture at either side (7-0 monofilament). The skin was closed with interrupted sutures (5-0 monofilament) and the animal was allowed to recover on a heated pad. 3 mL of warm saline were administered subcutaneously. The following day, one of the two implanted device of the invention reservoirs was actuated at controlled input pressures of 1 PSI (Regime 1) or 2 PSI (Regime 2) at 1 Hz every 12 hours for 14 days (FIG. 3b) and compared to the non-actuated control reservoir for analysis. On day 15, animals were sacrificed by CO2. Following sacrifice, each device and the immediate surrounding tissue were extracted.

CNC[C@H](O)c1ccc(O)c(O)c1 [epinephrine]
time to therapeutic effect (time when dP/dt max leveled off) (actuated device, 35 uL of 1 mg/ml): ~40 s
time to therapeutic effect (time when dP/dt max leveled off) (control (non-actuated) device, same animal): ~170 s
cyclical average dp/dt max in the first 40 s after delivery, actuation group compared with control (first 40 s after delivery, P<0.0001): significantly higher
